Measured values: US20230201232A1, “COMPOSITION FOR AMELIORATION, PREVENTION OR TREATMENT OF HAIR LOSS, COMPRISING CATECHIN 7-O-beta-D-APIOFURANOSIDE AS ACTIVE INGREDIENT” (ANPOLY INC., priority 2020, published 2023)

Key:
Bcl-2 = assay: Western blot, Bcl-2 protein expression in H2O2-treated dermal papilla cells; assay type: cell-based, human; conditions: HFDPC, 600 µM H2O2, compound at each concentration; FIG. 4
Protocol: (§1) HFDPC cells were inoculated in a papilla cell-specific medium (PromoCell, Heidelberg, Germany or Cell biologics Inc, IL, USA) recommended by the supplier, subcultured for 24 to 48 hours at 37° C. and 5% CO2 conditions, and used for experiments.
(§2) After treating the dermal papilla cells (HFDPC) with H2O2 and the sample, the cells were collected at each time zone and the cells were lysed in a cell lysis buffer (RIPA buffer). After the sample was centrifuged at 13,000 g for about 10 to 15 minutes, only the supernatant was taken. The protein concentration of the supernatant was measured by a BCA protein assay kit (Bio-Rad, CA, USA) and then heated at 95° C. for 10 minutes. The prepared sample was electrophoresed on SDS-polyacrylamide gel, transferred to a polyvinylidenedifluoride membrane (PVDF, Bio-rad, CA, USA), blocked with 5% BSA, and reacted with the indicated specific antibody. Then, HRP-conjugated secondary antibody (Santacruz, CA, USA) was reacted with the sample and detected by ECL system (Bio-Rad, MO, USA). As primary antibodies against Bax-1, Bcl-2, PARP-1, and β-actin, Santacruz antibodies (CA, USA) were used.

Bax = assay: Western blot, Bax protein expression in H2O2-treated dermal papilla cells; assay type: cell-based, human; conditions: HFDPC, 600 µM H2O2, pretreatment with compound at each concentration; FIG. 4
Protocol: as §1, §2

[1] = tested on: production of dihydrotestosterone (DHT) from testosterone in dermal papilla cells (HFDPC); assay: Dihydrotestosterone production inhibitory activity assay (DHT ELISA); assay type: cell-based, human; conditions: HFDPC treated with 20 nM testosterone; compound at 125 µg/ml, 150 µg/ml, 1100 µg/ml; FIG. 3
Protocol: as §1
Quantitative analysis of dihydrotestosterone (DHT) was performed by immunochemical quantitative analysis using an ELISA kit. A DHT assay ELISA kit was purchased from Alpco (NH, USA) and used. The experiment using the kit was performed according to the instructions provided by the manufacturer, and the result was derived by converting the amount of antigen (pg/µg) per volume (ml) of cell lysate into a concentration unit.

TGF-β1 = assay: ELISA, TGF-β1 expression in H2O2-treated dermal papilla cells; assay type: cell-based, human; conditions: FIG. 5B
Protocol: as §1
(§3) An ELISA kit was purchased and used to perform immunochemical quantitative analysis related to hair growth promotion and hair loss inhibition. TGF-β and IGF-1 kits were purchased from R&D systems (CA, USA) and used. The test was conducted using each kit according to the supplier’s manual, and the result was derived by converting the amount (pg or µg) of antigen per volume (ml) of cell lysate into a concentration unit.

PARP-1 = assay: Western blot, PARP-1 protein expression in H2O2-treated dermal papilla cells; assay type: cell-based, human; conditions: HFDPC, 600 µM H2O2, compound at each concentration; FIG. 4
Protocol: as §1, §2

IGF-1 = assay: ELISA, IGF-1 expression in H2O2-treated dermal papilla cells; assay type: cell-based, human; conditions: FIG. 5A
Protocol: as §1, §3

[2] = tested on: dermal papilla cells (HFDPC); conditions: H2O2 at 600 µM

| SMILES | expression of Bcl-2 (Bcl-2) | expression of Bax (Bax) | inhibition of DHT production [1] | expression of TGF-β1 (TGF-β1) | protein expression level of PARP-1 (PARP-1) | expression of IGF-1 (IGF-1) | apoptosis [2] |
| --- | --- | --- | --- | --- | --- | --- | --- |
| OC[C@@]1(O)COC(Oc2cc(O)c3c(c2)O[C@H](c2ccc(O)c(O)c2)[C@@H](O)C3)[C@@H]1O (stereo in doubt) [catechin 7-O-β-D-apiofuranoside] | significantly increased the expression of Bcl-2 in a concentration-dependent manner | expression of Bax was significantly reduced in a concentration-dependent manner | effect of inhibiting DHT production was statistically significant in a concentration-dependent manner | inhibit the expression of TGF-β1 in a concentration-dependent manner | significantly inhibited the protein expression level of PARP-1 in a concentration-dependent manner | promote the expression of IGF conducive to hair growth in a concentration-dependent manner | – |
| OO [Hydrogen peroxide (H2O2), Hydrogen peroxide] | – | – | – | – | – | – | 50% |
